Assay results taken from patent US12062444B2, “Methods and compositions related to triple-negative breast cancer” (THE UNIVERSITY OF CHICAGO, priority 2017, dated 2024).
Entries after “also recorded” stand apart in the source; their conditions may differ. Read-outs that look alike come from different tables or passages of the source.

Tests used:
GR LBD = target: T1, GR LBD (Homo sapiens, UniProt P04150); test: Ligand titration assay via fluorescence polarimetry (displacement of F-Dex); format: binding; conditions: for Fit of FP dose response curve (half-maximal FP signal): log(inhibitor) vs. normalized response, FIG. 7
T1 construct: The wild-type GR-LBD (amino acid residues 522-777) was cloned into a pFASTBAC plasmid; 6X-His (TEV-cleavable) (cleaved yes); made in house; host or cells: SF9 insect cells (baculovirus, pFASTBAC)
T1 sequence (P04150 522-777): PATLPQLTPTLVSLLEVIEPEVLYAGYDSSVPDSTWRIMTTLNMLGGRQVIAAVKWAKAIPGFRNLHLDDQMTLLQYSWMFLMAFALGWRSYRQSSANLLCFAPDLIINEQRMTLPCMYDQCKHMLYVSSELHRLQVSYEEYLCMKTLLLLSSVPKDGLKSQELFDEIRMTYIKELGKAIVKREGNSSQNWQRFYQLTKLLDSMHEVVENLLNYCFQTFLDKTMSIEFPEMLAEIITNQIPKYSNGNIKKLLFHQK
Protocol: SF9 insect cells were transfected with recombinant bacmid and virus (collected after 6 days) was amplified prior to protein expression. […] GR-LBD was purified first using Ni-affinity chromatography followed by overnight dialysis with TEV protease to remove the His tag. Extensive dialysis into 20 mM TRIS pH 8.0, 500 mM NaCl, 5% glycerol, 0.1% CHAPS, 0.25 mM TCEP was performed to obtain non-ligand-bound GR LBD. […] The purified proteins were concentrated to 5 mg/ml, flash frozen in 50 ul aliquots in N2(l), and stored at −80C.
GR LBD was diluted in assay buffer (20 mM TRIS pH 7.5, 50 mM NaCl, 0.25 mM TCEP) to a concentration of 50 nM. […] Triplicate FP measurements were scaled to maximal FP and averaged for each ligand concentration.

[1] = test system: MDA-MB-231 tumor xenograft; test: Murine TNBC xenograft, tumor re-growth after treatment; format: in vivo, SCID mice
Protocol: MDA-MB-231 tumors were established in the right pectoral mammary gland of n=23 five- or six-week old female SCID mice (Taconic). Tumor volume was measured by caliper and then calculated using the elliptical volume equation (43). […] Tumor volume was measured by caliper until reaching a volume of approximately 2000 mm^3 or 40 days post-treatment initiation. Tumor data were analyzed using the repeated measures ANOVA using SigmaPlot 11.2 (Systat Software), and p-values between treatment groups over time were obtained using the Holm-Sidak post-hoc test.
Next, we studied the in vivo effect of GR activity in paclitaxel-treated GR+TNBC-bearing female SCID mice (n=23). MDA-MB-231 xenograft tumors were established subcutaneously in the mammary fat pad of 6-week old female mice. […] The mice were treated daily for five days with intraperitoneally with C297 (or vehicle), one hour prior to paclitaxel. The one-hour pre-treatment of the GR modulator was intended to compete with endogenous GC (murine corticosterone and cortisol (68)) bound to the tumor cell GR LBD. The 5 sequential dosing was selected to mimic an intensive adjuvant chemotherapy schedule often used in early-stage TNBC. Following cessation of the 5d treatment, time to tumor xenograft re-growth was measured as a readout for time to relapse post-treatment (43, 46).

[2] = test system: GR-regulated gene expression in MDA-MB-231 cells; test: Gene expression microarray and analysis; format: cell-based, human
Protocol: MDA-MB-231 cells were grown to 80% confluence in 15-cm dishes in DMEM with 10% FBS. […] Following compound exposure, cells were washed in PBS, and lysed in RNA lysis buffer (Qiagen) overnight at -80° C. RNA extraction, with accompanying DNase treatment, was performed using the RNeasy kit (Qiagen) following the manufacturer's protocol. […] The University of Chicago Genomics Core facility carried out the reverse transcription on the samples, followed by microarray using the Affymetrix Human U133 Plus 2.0 platform. […] A principal components analysis (PCA) was performed using the prcomp function in R (Q-mode PCA using singular value decomposition). […] Dex-regulated genes were overlapped with a list of n=5,170 differentially-expressed tumor-derived genes (in the same direction) from GR-high versus GR-low BCs (52). Ingenuity Pathway Analysis (Qiagen) of the n=462 patient-relevant and antagonist-inhibited genes was performed to obtain Activation Z-scores of the most significant Diseases and Biofunctions (cell functions).

SUM-159-PT cells = conditions: Pac 10 nM, Dex 100 nM, C297 1 μM; 72 hours
Protocol: After compound treatment, cells were fixed in 10% trichloroacetic acid (TCA) at 4° C. overnight. […] Absorbance at λ=510 nm was measured, and relative percentage dead/alive cells was calculated based on minimal and maximal optical densities measured per plate. The experiment was performed in three biological replicates per cell line. P-values comparing the means of cell death percentages were obtained using the two-sample Student's t-test (Graphpad).

[3] = target: T2, mineralocorticoid receptor (Homo sapiens, UniProt P08235); conditions: cited from earlier work
T2 sequence (P08235 1-984): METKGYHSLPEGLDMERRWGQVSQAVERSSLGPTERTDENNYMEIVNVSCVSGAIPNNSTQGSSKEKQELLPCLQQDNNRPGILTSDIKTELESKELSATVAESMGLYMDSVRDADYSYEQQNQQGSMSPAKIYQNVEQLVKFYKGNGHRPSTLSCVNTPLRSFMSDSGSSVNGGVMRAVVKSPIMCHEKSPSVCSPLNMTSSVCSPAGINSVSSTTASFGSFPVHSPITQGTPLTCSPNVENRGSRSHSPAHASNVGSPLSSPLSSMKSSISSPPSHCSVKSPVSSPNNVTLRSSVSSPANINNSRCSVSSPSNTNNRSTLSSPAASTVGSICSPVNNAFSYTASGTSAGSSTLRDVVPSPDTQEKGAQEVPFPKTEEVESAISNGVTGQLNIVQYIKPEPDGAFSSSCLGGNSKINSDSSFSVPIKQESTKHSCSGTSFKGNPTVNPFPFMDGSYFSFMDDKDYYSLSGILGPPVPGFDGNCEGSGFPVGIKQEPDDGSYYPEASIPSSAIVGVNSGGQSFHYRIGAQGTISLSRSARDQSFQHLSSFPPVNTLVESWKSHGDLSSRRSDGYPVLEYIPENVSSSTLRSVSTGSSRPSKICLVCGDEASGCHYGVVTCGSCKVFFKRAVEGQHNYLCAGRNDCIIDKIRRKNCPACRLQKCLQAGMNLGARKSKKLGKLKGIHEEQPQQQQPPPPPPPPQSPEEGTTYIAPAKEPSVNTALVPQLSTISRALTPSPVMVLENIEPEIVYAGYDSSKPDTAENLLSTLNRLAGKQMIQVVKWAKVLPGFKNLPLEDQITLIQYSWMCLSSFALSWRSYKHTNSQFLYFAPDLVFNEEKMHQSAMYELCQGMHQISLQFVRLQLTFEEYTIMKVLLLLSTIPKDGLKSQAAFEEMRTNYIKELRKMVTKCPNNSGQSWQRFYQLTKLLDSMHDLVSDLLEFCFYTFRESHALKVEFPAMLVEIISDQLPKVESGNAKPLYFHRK

GR = target: T3, GR (Homo sapiens, UniProt P04150); conditions: cited from earlier work
T3 sequence (P04150 1-777): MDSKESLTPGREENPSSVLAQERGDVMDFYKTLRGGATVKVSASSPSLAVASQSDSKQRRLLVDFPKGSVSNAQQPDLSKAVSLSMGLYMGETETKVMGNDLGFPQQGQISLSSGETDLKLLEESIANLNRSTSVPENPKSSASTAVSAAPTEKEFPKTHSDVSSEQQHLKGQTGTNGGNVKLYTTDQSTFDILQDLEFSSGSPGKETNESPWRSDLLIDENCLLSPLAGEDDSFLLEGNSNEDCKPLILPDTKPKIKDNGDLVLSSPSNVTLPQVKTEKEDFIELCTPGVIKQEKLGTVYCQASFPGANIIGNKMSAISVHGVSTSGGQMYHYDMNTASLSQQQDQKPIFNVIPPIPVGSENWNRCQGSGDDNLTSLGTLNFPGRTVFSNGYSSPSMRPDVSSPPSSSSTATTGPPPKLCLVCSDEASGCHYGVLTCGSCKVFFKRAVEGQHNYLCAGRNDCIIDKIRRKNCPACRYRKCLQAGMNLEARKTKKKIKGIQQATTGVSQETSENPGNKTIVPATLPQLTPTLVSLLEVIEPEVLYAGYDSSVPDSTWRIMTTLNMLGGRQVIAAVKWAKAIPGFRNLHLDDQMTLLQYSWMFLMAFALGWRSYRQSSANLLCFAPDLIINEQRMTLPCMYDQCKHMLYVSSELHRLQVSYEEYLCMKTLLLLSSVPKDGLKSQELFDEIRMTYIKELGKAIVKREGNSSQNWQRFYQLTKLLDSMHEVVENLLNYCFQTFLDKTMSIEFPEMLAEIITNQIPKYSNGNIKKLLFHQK

[4] = test system: GR chromatin association in MDA-MB-231 cells; test: GR ChIP-sequencing and analysis; format: cell-based, human; conditions: 100 nM each, 60 minutes, normalized to vehicle
Protocol: MDA-MB-231 cells were grown to 80% confluence in 15-cm dishes in DMEM with 10% FBS, followed by 48h in DMEM supplemented with 2.5% charcoal-stripped FBS. […] Cells were cross-linked with 1% formaldehyde, quenched with glycine (final concentration of […]), and harvested. After cell lysis with ChIP lysis buffer (Magna ChIP A Chromatin Immunoprecipitation Kit, EMD Millipore), cells were sonicated to achieve the majority of DNA fragments between 200-400 bp. Input samples were preserved at -80° C. […] Following manufacturer's protocol, chromatin was eluted from GR ChIP and input samples. Library build and sequencing was performed at the University of Oregon Genomics Core facility using the NextSeq 500 sequencer. Quality control on sequences and adapter sequencing trimming was performed using Kapa Biosystems Illumina Library Quantification Kit. ChIP-seq analysis was carried out using the Galaxy platform (usegalaxy.org (111)). […] GR peaks for each treatment were normalized to its own input control sample. […] Selected GR peak locations in hg19 and GR peak maps were also individually analyzed using Integrative Genomics Viewer, IGV (Broad Institute (116)).

[5] = 50 nM GR LBD, 10 nM F-Dex, ligand 0 to 4000 nM
[6] = at least 1.3 fold-change over vehicle, 100 nM each, 4, 8 and 12 hours combined

Compound: CCOC[C@]12Cc3cnn(-c4ccc(F)cc4)c3C=C1CCN(S(=O)(=O)c1ccc(C(F)(F)F)cc1)C2 [C297]
- Displacement of fluorescently-labeled Dex (F-Dex) from the GR LBD (GR LBD; [5]): low nM affinities
- Fit of FP dose response curve (half-maximal FP signal) (GR LBD): able to fit data
- Tumor re-growth with C297 monotherapy in vivo ([1]; C297/Veh versus vehicle control, FIG. 8B): not cytotoxic; also recorded: did not cause a significant delay in tumor re-growth
- Genes for which both GR modulators antagonized GR induction or repression by at least 25% ([2]; 100 nM with 100 nM Dex): 3,066
- Antagonized GR-regulated genes shared with the other antagonist ([2]; C297 versus Mif, 100 nM): 87%
- Cell viability with C297 treatment alone in vitro (MDA-MB-231 cells; monotherapy, SRB assay, FIG. 8A, cell line not stated): not cytotoxic; also recorded: did not reduce cell viability
- Paclitaxel cytotoxicity (percentage cell death) (SUM-159-PT cells): restored cytotoxic sensitivity; also recorded: modest, but significant, relative increase in paclitaxel cytotoxicity

Compound: O=c1[nH]c(=O)c(Cc2cccc(C(F)(F)F)c2)c([C@H]2CC[C@H](c3ccccc3)CC2)[nH]1 [C335]
- Displacement of fluorescently-labeled Dex (F-Dex) from the GR LBD (GR LBD; [5]): low nM affinities
- Fit of FP dose response curve (half-maximal FP signal) (GR LBD): able to fit data
- Binding to the mineralocorticoid receptor [3]: bind the mineralocorticoid receptor

Compound: CNCC(Cl)c1ccc(OC(C)=O)cc1.Cl (stereo not drawn) [CpdA]
- Displacement of fluorescently-labeled Dex (F-Dex) from the GR LBD (GR LBD; [5]): did not displace F-Dex from the GR LBD
- Displacement of fluorescently-labeled Dex (F-Dex) from the GR LBD (GR LBD; 50 nM GR LBD, 10 nM F-Dex, ligand 0 to 4000 nM, listed as Compound A): does not bind to ligand pocket
- Fit of FP dose response curve (half-maximal FP signal) (GR LBD): does not bind the GR LBD
- Displacement of H^3-Dex in cell lysates (GR): displace H^3-Dex in cell lysates

Compound: C[C@]12CCC(=O)C[C@@H]1CC[C@@H]1[C@@H]2CC[C@]2(C)[C@@H](O)CC[C@@H]12 [DHT, dihydrotestosterone]
- Displacement of fluorescently-labeled Dex (F-Dex) from the GR LBD (GR LBD): did not observe GC competition

Compound: C[C@@H]1C[C@H]2[C@@H]3CCC4=CC(=O)C=C[C@]4(C)[C@@]3(F)[C@@H](O)C[C@]2(C)[C@@]1(O)C(=O)CO [Dex, dexamethasone]
- Downregulated GC-mediated genes unique to Dex treatment ([2]; FIG. 9A): 41%
- Downregulated GC-mediated genes unique to Dex treatment, number ([2]; FIG. 9A): 1321
- Upregulated GC-mediated genes unique to Dex treatment ([2]; FIG. 9A): 50%
- Upregulated GC-mediated genes unique to Dex treatment, number ([2]; FIG. 9A): 1363
- Number of downregulated genes [2, 6]: 3,202
- Number of upregulated genes [2, 6]: 2,719
- Genome-wide GR peaks [4]: 8,448
- Paclitaxel cytotoxicity (percentage cell death) (MDA-MB-231 cells; Pac 10 nM, Dex 100 nM, C297 1 μM, 96 hours): dampened paclitaxel (10 nM) cytotoxicity
- Paclitaxel cytotoxicity (percentage cell death) (SUM-159-PT cells): dampened paclitaxel (10 nM) cytotoxicity

Compound: CC(=O)O[C@H]1C(=O)[C@@]2(C)[C@H]([C@H](OC(=O)c3ccccc3)[C@]3(O)C[C@H](OC(=O)[C@H](O)[C@@H](NC(=O)c4ccccc4)c4ccccc4)C(C)=C1C3(C)C)[C@]1(OC(C)=O)CO[C@@H]1C[C@@H]2O [Pac, paclitaxel]
- Post-treatment tumor re-growth ([1]; C297 20 mg/kg/day one hour prior to pac 10 mg/kg/day, five days): significantly smaller than vehicle
- Time to tumor re-growth to a 6× increase of tumor volume ([1]; C297 20 mg/kg/day one hour prior to pac 10 mg/kg/day, five days, i.p.): 27 days

Compound: C[C@]12CCC(=O)C=C1CC[C@@H]1[C@@H]2[C@@H](O)C[C@@]2(C)[C@H]1CC[C@]2(O)C(=O)CO [cortisol]
- Fit of FP dose response curve (half-maximal FP signal) (GR LBD): able to fit data
